The test system of series [1] is porcine brain endothelial cells (PBECs). Particulars: apical to basal, P.1 PBEC; line through passive compounds R^2=0.96.
Procedure: Permeability assays were performed on cell monolayers with TEER >500 Ω cm^2. […] At t=5 min, the inserts were transferred to the next well containing donor buffer. This procedure was repeated for all inserts at t=15 min and t=30 min. At the end of the experiment, samples were taken from each insert and well to scintillation vials. OptiPhase HiSafe 2 scintillation liquid was added to each vial and radioactivity was counted using a Canberra Packard Tricarb 1900 TR Liquid Scintillation Analyser.
Cleared volume was calculated using the following equation and plotted as a function of time:(1) Clearedvolume(μl)=MR(dpm)/CD(dpm/μl) where is the MR=amount of radio-labelled compound in the receiver compartment, dpm=disintegrations per minute, CD=concentration of the compound in the donor compartment.
All dpm values were corrected for background dpm. The slope of the clearance curve was obtained by linear regression and represents the PS (i.e. permeability × surface area) product. Apparent permeability (Papp, cm/s) was calculated using the following equation:(2) Papp(cm/s)=PSproduct(cm^3/s)/surfaceareaoftheinsert(cm^2)
The apparent permeability Papp was calculated according to Eq. (2) and plotted against the calculated Log Poctanol as a measure of lipophilicity of the compound.
The subject of series [2] is hCMEC/D3, immortalised human brain microvascular endothelial cells. The arrangement: method as in Förster et al., 2008. The following applies: hCMEC/D3 treated with hydrocortisone; ref Förster et al., 2008; cited from earlier work.
In series [3] the test system is cEND (an immortalised mouse brain endothelial cell line). Set-up: method as in Förster et al. (2005). Particulars: cEND cells treated with hydrocortisone; ref Förster et al. (2005); cited from earlier work.

`CC(C)NCC(O)COc1cccc2ccccc12` (stereo not drawn) [propranolol]: in series [1], the “Papp relative to the line of Papp vs. calculated Log Poctanol” value is recorded as “linear function of calculated Log Poctanol”.

On to `CC(C)C[C@H](N)C(=O)O` [Leucine, L-leucine], for which the “Papp relative to the line of Papp vs. calculated Log Poctanol” value in series [1] is “clear outliers above the line”.

For the compound `C[C@]12CCC(=O)C=C1CC[C@@H]1[C@@H]2[C@@H](O)C[C@@]2(C)[C@H]1CC[C@]2(O)C(=O)CO` [hydrocortisone], in series [2], the “increase in TEER” value was “three-fold”; the “increase in expression of occludin and claudin-5” value is “over twofold”. In addition, the “increase in TEER” value in series [3] is recorded as “threefold”.

Take `Cn1c(=O)c2c(ncn2C)n(C)c1=O` [caffeine]: in series [1], the “Papp relative to the line of Papp vs. calculated Log Poctanol” value is given as “clear outliers above the line”.

Turning to `N[C@@H](CCC(=O)O)C(=O)O` [glutamate, L-glutamic acid], the “Papp relative to the line of Papp vs. calculated Log Poctanol” value in series [1] is “clear outliers below the line”.

Turning to `CC[C@]1(O)C[C@@H]2CN(CCc3c([nH]c4ccccc34)[C@@](C(=O)OC)(c3cc4c(cc3OC)N(C)[C@H]3[C@@](O)(C(=O)OC)[C@H](OC(C)=O)[C@]5(CC)C=CCN6CC[C@]43[C@@H]65)C2)C1` [vinblastine], in series [1], the “Papp relative to the line of Papp vs. calculated Log Poctanol” value is listed as “clear outliers below the line”.

In the case of `C=CCN1CC[C@]23c4c5ccc(O)c4O[C@H]2C(=O)CC[C@@]3(O)[C@H]1C5` [naloxone], the “Papp relative to the line of Papp vs. calculated Log Poctanol” value in series [1] was “linear function of calculated Log Poctanol”.

The record behind these values is PMC3694297, “Establishment of a simplified in vitro porcine blood–brain barrier model with high transendothelial electrical resistance” (Brain Research, 2013).
